The subject of data set [1] is Vibrio percolans (ATCC 8461). The experiment in a line: Assay procedure for determining "890 Assay Units" (disc-plate assay, cephaloridine standard). In kind it is cell-based. The method, then:
The conventional disc-plate assay procedure is employed and the discs are 1/2 inch in diameter. The routinely poured 10 ml./plate inoculated with Vibrio percolans (ATCC 8461) is used and the standard is cephaloridine. Four concentrations of cephaloridine constitute the standard -- 3.12, 6.25. 12.5 and 25 mcg per ml. with the 12.5 mcg per ml. as a reference solution. The zone diameters on a 5 ml. plate for the standard are as follows:
A unit is defined as the amount of antibiotic-producing a 25 mm. zone of inhibition on a 5 ml. plate. Therefore, in this assay a concentration of 12.5 mcg per ml. of cephaloridine is considered equivalent to 1 unit of 890A. Since the slope of the line for cephaloridine is 4.0 calculations of the potency of a sample are made using a slope of 4.0.

The next data set in a line: Solubility in water. In kind it is physicochemical. Conditions: sodium salt.
The next data set has as its system Escherichia coli MB-1418. The experiment in a line: In vitro antibacterial spectrum profile, zone of inhibition. Conditions: MB1418, read-out: Inhib. Zone Diam. In kind it is cell-based.
Data set [2] has as its system Streptococcus faecalis MB-753. The data set is described as above. It counts as cell-based. The following applies: Enterococcus faecalis, MB753; 33 μg/ml; read-out: Inhib. Zone Diam.
Data set [3] deals with Xanthomonas vesicatoria MB-815. The description is as above. The following applies: MB815, 33 μg/ml, read-out: Inhib. Zone Diam. It counts as cell-based.
In data set [4] the test system is Aerobacter aerogenes MB-835. The data set is described as above. In kind it is cell-based. The following applies: Klebsiella aerogenes, MB835; 33 μg/ml; read-out: Inhib. Zone Diam.
Data set [5] has as its system Vibrio percolans resistant to ceph. C MB-2566. Described as above. Conditions: Comamonas terrigena, read-out: Inhib. Zone Diam. In kind it is cell-based.
Data set [6] relates to gram-negative and gram-positive organisms. The experiment in a line: In vivo activity. Also noted: species or system Female white Swiss mice. Conditions: mouse. The method, then:
(§1) In determining the in vivo activity, antibiotic 890A1 is dissolved in and diluted with 0.15M NaCl, 0.01M sodium phosphate, pH 7.0, to provide five fourfold concentrations of drug for testing. Female white Swiss mice, averaging about 21 g. in weight, were infected intraperitoneally with the test organism suspended in broth. The numbers of organisms injected were determined by standard plate-count techniques. At the time of infection and again 6 hours later, certain of the mice were treated intraperitoneally with the antibiotic. Five mice were used for each concentration of drug tested. An additional two mice, not infected, were treated with the antibiotic to determine whether the amount of agent injected was toxic. Controls of five mice for each of several dilutions of the infecting culture were included in each test in order to calculate the numbers of organisms that were lethal to 50% of the infected, untreated mice (LD50). This calculation was made using survival data of the seventh day after infection, at which time the amount of drug that should protect 50% of the infected mice (ED50) also was calculated.

The test system of data set [7] is Proteus mirabilis MB-3126. The experiment in a line: In vitro antibacterial spectrum profile, zone of inhibition. In kind it is cell-based. Conditions: MB3126, 33 μg/ml, read-out: Inhib. Zone Diam.
The subject of data set [8] is Pseudomonas aeruginosa MB-2824. The description is as above. It counts as cell-based. Conditions: MB2824, 33 μg/ml, read-out: Inhib. Zone Diam.
The subject of data set [9] is Escherichia coli ATCC 9637. The experiment in a line: In vitro antibacterial spectrum profile, zone of inhibition, synthetic medium. It counts as cell-based. Conditions: ATCC9637, read-out: Inhib. Zone Diam.
The test system of another data set is Bacillus sp. MB-633. The experiment in a line: In vitro antibacterial spectrum profile, zone of inhibition. The following applies: SP.MB633, 33 μg/ml, read-out: Inhib. Zone Diam. In kind it is cell-based. How it is done:
(§2) The test to determine the antibiotic spectrum profile is carried out by application of a 0.015 ml. droplet on the surface of a 100×15 mm. petri plate containing 5 ml. of seeded nutrient agar and 0.2% yeast extract. The antibiotic 890A1 is tested at a level of 33 μg/ml. and the antibiotic 890A3 is tested at a level of 182 μg/ml.

Data set [10] concerns Corynebacterium pseudoidph. ATCC 9742. The description is as above. In kind it is cell-based. Conditions: ATCC9742, 33 μg/ml, read-out: Inhib. Zone Diam. How it is done:
as §2

Data set [11] concerns Proteus vulgaris ATCC 21100. Described as above. It counts as cell-based. The following applies: ATCC21100, 33 μg/ml, read-out: Inhib. Zone Diam. The method, then: as §2
For data set [12], the system named is Alcaligenes faecalis ATCC 213. The data set is described as above. The following applies: ATCC213, 33 μg/ml, read-out: Inhib. Zone Diam. It counts as cell-based. How it is done:
as §2

A further data set has as its system Proteus vulgaris MB-1012. The data set is described as above. It counts as cell-based. The following applies: MB1012, 33 μg/ml, read-out: Inhib. Zone Diam.
Data set [13] concerns Brucella bronchiseptica ATCC 4617. The experiment in a line: microbe, parasite or virus in culture. In kind it is cell-based. Conditions: Bordetella bronchiseptica, ATCC4617, read-out: Inhib. Zone Diam.
In data set [14] the test system is Staphylococcus aureus MB-698. The experiment in a line: In vitro antibacterial spectrum profile, zone of inhibition. It counts as cell-based. Conditions: MB698, 33 μg/ml, read-out: Inhib. Zone Diam.
Data set [15] deals with Klebsiella pneumoniae MB-1264. The data set is described as above. In kind it is cell-based. Conditions: MB1264, read-out: Inhib. Zone Diam.
Data set [16] deals with Pseudomonas stutzeri ATCC 11607. The data set is described as above. It counts as cell-based. Conditions: Stutzerimonas stutzeri, ATCC11607; 33 μg/ml; read-out: Inhib. Zone Diam.
Data set [17] deals with Vibrio percolans ATCC 8461. The data set is described as above. It counts as cell-based. The following applies: Comamonas terrigena, ATCC8461, read-out: Inhib. Zone Diam.
The subject of data set [18] is Salmonella gallinarum MB-1287. The data set is described as above. In kind it is cell-based. The following applies: Salmonella enterica, 33 μg/ml, read-out: Inhib. Zone Diam.
In data set [19] the test system is Salmonella schottmuellari MB-2837. The experiment in a line: In vivo protection of intraperitoneally infected mice. On the set-up: species or system Female white Swiss mice. Conditions: ip; at infection and 6 hours later; calculated on the projected purity of 890A1 at 5500 units/mg. The method, then: as §1
All animals receiving this challenge and not treated with antibiotic died within 48 hours of the infection.

In data set [20] the test system is Vibrio percolans ATCC 8461 + 2 × 10^5 units/ml penicillinase. The experiment in a line: In vitro antibacterial spectrum profile, zone of inhibition, with penicillinase. It counts as cell-based. The following applies: Comamonas terrigena, ATCC8461, 33 μg/ml, read-out: Inhib. Zone Diam.
The next data set deals with Sarcina lutea ATCC 9341. The experiment in a line: In vitro antibacterial spectrum profile, zone of inhibition. It counts as cell-based. The following applies: Micrococcus luteus, ATCC9341; 33 μg/ml; read-out: Inhib. Zone Diam.
The test system of data set [21] is Pseudomonas aeruginosa MB-979. The data set is described as above. In kind it is cell-based. The following applies: MB979, 33 μg/ml, read-out: Inhib. Zone Diam.
In data set [22] the test system is Staphlococcus aureus ATCC 6538 P. The data set is described as above. Conditions: 33 μg/ml; read-out: Inhib. Zone Diam. In kind it is cell-based.
The subject of data set [23] is Serratia marcescens ATCC 990. The data set is described as above. The following applies: ATCC990, 33 μg/ml, read-out: Inhib. Zone Diam. It counts as cell-based.
Data set [24] relates to Proteus vulgaris (episome) MB-2112. The description is as above. It counts as cell-based. Conditions: 33 μg/ml, read-out: Inhib. Zone Diam.
Another data set in a line: Electrophoresis. It counts as physicochemical. Conditions: neutral pH.
For data set [25], the system named is Streptococcus faecium MB-2820. The experiment in a line: In vitro antibacterial spectrum profile, zone of inhibition. The following applies: Enterococcus faecium, MB2820; 33 μg/ml; read-out: Inhib. Zone Diam. It counts as cell-based.
The subject of data set [26] is Erwinia atroseptica ATCC 4466. The description is as above. Conditions: Pectobacterium atrosepticum, ATCC4466; 33 μg/ml; read-out: Inhib. Zone Diam. It counts as cell-based.
Data set [27] deals with Bacillus subtilis ATCC 6633. Described as above. The following applies: ATCC6633, 33 μg/ml, read-out: Inhib. Zone Diam. In kind it is cell-based.
For data set [28], the system named is Vibrio percolans ATCC 8461. The experiment in a line: Bioassay, agar plate disc-diffusion method.
Data set [29] relates to Streptococcus agalactiae MB-2875. The experiment in a line: In vitro antibacterial spectrum profile, zone of inhibition. It counts as cell-based. The following applies: MB2875, read-out: Inhib. Zone Diam.
Where [30] appears, read: 1 unit/ml. = the concentration which produces a 25 mm zone of inhibition.

The source of these data is patent US4162324A, “Antibiotics 890A1 and 890A3” (Merck & Co., Inc., priority 1977, dated 1979).

Regarding `O=C(Cc1cccs1)N[C@@H]1C(=O)N2C(C(=O)[O-])=C(C[n+]3ccccc3)CS[C@H]12` [cephaloridine], in data set [1], the “slope of the line” value amounted to 4.0. In addition, the zone of inhibition at 3.12 µg/mL in [1] (Comamonas terrigena, ATCC8461, 3.12 mcg/ml, 5 ml. plate, read-out: Zone Diameter) was found to be 16.8 mm. The zone of inhibition at 6.25 µg/mL in data set [1] (Comamonas terrigena, ATCC8461, 6.25 mcg/ml, 5 ml. plate, read-out: Zone Diameter) is 22.3 mm. In addition, in data set [1] (Comamonas terrigena, ATCC8461, 12.5 mcg/ml, 5 ml. plate, read-out: Zone Diameter), the zone of inhibition at 12.5 µg/mL was determined as 25 mm. Also, in data set [1] (Comamonas terrigena, ATCC8461, 25 mcg/ml, 5 ml. plate, read-out: Zone Diameter), the zone of inhibition at 25 µg/mL came to 29.6 mm.
Regarding `CC(=O)NCCSC1=C(C(=O)O)N2C(=O)C(C(C)O)C2C1` (centres unmarked) [Antibiotic 890A1], the solubility in water entry in “Solubility in water” is “very soluble in water”. Further, the zone of inhibition at 33 µg/mL in the data set on Escherichia coli MB-1418 amounted to 27 mm; in data set [2], 17 mm; in [3] it was 26 mm; in data set [4] it was 26 mm; in data set [5], 15 mm; in data set [7], 23 mm. Moreover, the zone of inhibition at 33 µg/mL in [8] amounted to 0 mm; in [9], 27 mm; in the data set with Bacillus sp. MB-633 it was 40 mm; in data set [10], 34 mm; in data set [11], 34 mm; in data set [12], 27 mm. Also, the zone of inhibition at 33 µg/mL was determined as 21 mm in the data set on Proteus vulgaris MB-1012; 22 mm in [13]; 28 mm in [14]; 27 mm in data set [15]; 10 mm in data set [16]; 34 mm in data set [17]. Also, the zone of inhibition at 33 µg/mL in data set [18] is 33 mm; in [20] it was 10 mm; with Sarcina lutea ATCC 9341 it was 38 mm; in data set [21], 0 mm; in data set [22], 35 mm; in data set [23] it was 26 mm. Besides, the zone of inhibition at 33 µg/mL turned out to be 32 mm in [24]; 18 mm in data set [25]; 20 mm in data set [26]; 38 mm in data set [27]; 36 mm in data set [29]. Also, the in vivo activity result in data set [6] is “exhibits in vivo activity against gram-negative and gram-positive organisms”. Moreover, the “ED50 × 2 doses” value in data set [19] was 3 µg. Moreover, in the data set “Electrophoresis”, the movement on electrophoresis entry is listed as “acidic substance which moves toward the positive pole on electrophoresis at neutral pH”. Further, the “activity of the solution tested in vivo” value in data set [28] (setting [30]) was 908 Units/ml. In data set [28] (setting [30]), the “potency of 890A1 used in the in vivo test” value turned out to be 5.5 units per μg. Moreover, the antibiotic potency in data set [28] (890A1 value defined as standard) amounted to 250 units per HAEA300 unit.
